Format in all cases: cell-based, human
Test [1] concerns HSPC subpopulations including HSC, MPP and GMP. As to the kind of experiment: BrdU incorporation (proliferation rate). To be noted: 2 uM 4HPR, day 3 post-treatment. (Dividing cells build labelled thymidine or BrdU into new DNA.)
In a further test the test system is sorted HSC, MPP or GMP. The experiment in a line: Cell cycle analysis with Ki67 and Hoescht by flow cytometry. To be noted: 2 uM 4HPR, day 2 or day 3.
The subject of test [2] is CD34+CD38- (stem) and CD34+CD38+ (prog) cells. As to the kind of experiment: cyto-ID flow cytometry (autophagic flux). Particulars: day 2. The method, then:
(A) Representative mmunofluorescence images taken by confocal microscopy for DAPI (blue) and LC3II staining (green) for CD34+CD38− cells (stem) following 2 days of treatment with DMSO control or 2 uM 4HPR with and without the autophagy inhibitor baflomycin A1 (BAF) to assay for basal autophagy and autophagic flux. (B) Quantitation of LC3II foci area as a percentage of total cell area for stem and prog (CD34+38+) cells from three independent CB using R and Image J software. (C) LCII foci area is increased with 4HPR treatment relative to control in the presence of BAF only in stem populations and not Prog populations. (D) Representative flow cytometry histogram plot of cyto-ID fluorescence intensity of control (black) and 4HPR (green) treated stem cells to assay for autophagic flux. Lower mean fluorescence intensity (MFI) indicates more turnover of autophagosomes and thus increased autophagic flux. […] (F) Cytokine withdrawal for 3 hours activates autophagic flux in CB stem cells to similar levels as 2 uM 4HPR as assayed by cyto-ID flow cytometry at day 2 post-treatment (n=3).
(B). […] This difference in mitochondrial content is lost by day 3 post culture (See FIG. 3K).
We hypothesize that such selective enhancement of CFC cloning efficiency with 4HPR treatment is a result of activating autophagy in HSC in human CB. […]

The subject of the next test is lin- CB cells. As to the kind of experiment: 8 day ex vivo expansion culture of lin- CB, flow cytometry. An excerpt:
(A) Experimental scheme (B) Representative FACS analysis data of in vitro culture for 16 HSC dose time course (n=3). The number of (C) viable cells, (D) CD15+ myeloid cells, (E) GlyA+ erythroid cells, and (F) CD34+ primitive cells measured for the 16 LTRC dose with HTS flow cytometry analysis at day 8 post-treatment for vehicle control or 4HPR prior to xenotransplantation (n=5 biological replicates, 4 in technical triplicate, marked with different symbols). (G) Human CD45+ engraftment at 16 weeks post transplant in injected femur (n=4, 5 mice/biological experiment). Lineage analysis of control or 4HPR transplanted mice from FIG. 5G for (H) B lymphoid, (I) myeloid, (J) erythroid, and (K) primitive CD34+ at the 16 LTRC dose. (L) CD45+ cells were isolated from 5 biological experiments of the 16 LTRC dose primary mice and transplanted at limiting doses into secondary recipients for 16 weeks. Human CD45+ marking of >0.1% was considered positive for secondary engraftment. Limiting dilutation analysis was performed using ELDA software and the long-term repopulating cell (LTRC) frequency for each biological replicate plotted and the average LTRC frequency calculated.
(A) Representative flow cytometry analysis of the primitive hierarchy within the CD34+ fraction of day 8 cultured lin− CB cells after the indicated treatments for CD90 and CD45RA, n=4. B) The distribution of cultured CD34+CD90+CD45RA− (cHSC), CD34+CD90−CD45RA− (cMPP), and […] for the indicated conditions at day 8 of ex vivo culture following CD34 enrichment. Statistical significance assayed through unpaired t-test relative to vehicle control (Ctrl). The relative number of colonies resulting from (C) HSC or (D) MPP grown in methylcellulose CFC assays in the presence of vehicle control (−) or the indicated combination of 2 uM 4HPR, or 35 nM UM171 or 0.5 uM SR1 at 10 days. Statistical significance is calculated via unpaired t-test relative to ctrl (black) or to the presence of absence of 4HPR treatment for UM171 or SR1.
(A) The number of cells following 8 days of ex vivo culture at the 16 LTRC dose grown as in FIG. 5A for the indicated drug treatments (n=2). […] (2 biological replicates) (E) CD45+ cells were isolated from 2 biological experiments of the 16 LTRC dose primary mice and transplanted at limiting doses into secondary recipients for 16 weeks. Human CD45+ marking of >0.01% was considered positive for secondary engraftment. Limiting dilutation analysis was performed using ELDA software and the long-term repopulating cell (LTRC) frequency for each biological replicate plotted and the average LTRC frequency calculated.
To determine if 4HPR preserves functional HSC in CB liquid culture, we devised an experimental protocol to test the effect of 4HPR treatment in short-term ex vivo expansion culture on repopulation in serial NSG xenotransplantation to functionally read out LT-HSC (FIG. 5A). Briefly, lin− CB (enriched for CD34+) is cultured ex vivo in an in vitro limiting dilution assay (LDA) fashion based on 3 initial cell doses with high (16 functional HSC or LTRC), medium (3.2 LTRC) and limiting (0.65 LTRC) in xenotransplantation. All expanded cells are unbiasly transplanted via intrafemoral injection into NSG mice after 8 days of culture where drug is added every 2 day and reconstitution is assayed 16 weeks following transplantation. […] Human CD45+ cells are isolated from primary mice transplanted with the 16 LTRC dose and serially transplanted in LDA fashion to enumerate functional HSC in the gold-standard for long-term repopulating cell (LTRC). Remarkably, 4HPR treated cells show a 3 fold increase in SRC over control treatment through 32 weeks of xenotransplantation with an average LTRC frequency of 1e6 CD45+ cells (FIG. 5L, n=5, p=0.02). […] Thus, 4HPR acts to preserve LT-HSC function in ex vivo expansion despite limiting total CD34+ cells during culture. […]
On the technique in general: In flow cytometry, cells or beads pass a laser one at a time.

The mark [3] stands for this setting: 8 days culture, 4HPR vs vehicle control.

The structures appear in SMILES notation.

For `CC1=C(/C=C/C(C)=C/C=C/C(C)=C/C(=O)Nc2ccc(O)cc2)C(C)(C)CCC1` [4HPR, N-(4hydroxyphenyl)retinamide], the “proliferation rate by BrdU incorporation” value in test [1] is given as “decreased proliferation rate”. In addition, in the test on sorted HSC, MPP or GMP, the “cell cycle transit (Ki67 and Hoescht)” value is “no significant difference between ctrl and 4HPR”. Also, the “autophagic flux by cyto-ID” value in test [2] (0.2 uM or 2 uM 4HPR vs vehicle, stem vs prog) was “only significantly induced in stem but not prog cells”. Further, the “autophagy activated by cytokine withdrawal (cytoID)” value in test [2] (CB stem cells, 3 hour cytokine withdrawal) is “further enhanced in the presence of 4HPR”. Besides, in the test on lin- CB cells (setting [3]), the “erythroid differentiation in culture” value is reported as “decreased erythroid differentiation”, the “immunophenotypic CD34+ cells in culture” value is “fewer immunophenotypic CD34+ cells” and the “myeloid differentiation in culture” value is “enhanced myeloid differentiation”. Moreover, in the test on lin- CB cells (day 8, relative to control), the “cHSC in the CD34 compartment” value is listed as “trends to increasing cHSC”, the “cMPP in the CD34 compartment” value is given as “increasing cMPP” and the “percentage of cProg cells in the CD34 compartment” value is reported as “significantly limits the percentage of (cProg) cells”. Also, the “formation of cProg cells” value in the test on lin- CB cells (lin- CB as well as HSC and MPP, dominant over UM171 or SR1 singularly and in combination) is “limits the formation of cProg cells”.
